In the first experiment the test system is MvfR regulon. Description: Quantification of pyocyanin (OD520nm of chloroform-extracted cultures). Conditions: Pseudomonas aeruginosa, read-out: pyocyanin @50 uM (%), compound at 50 uM. The experiment is classed as cell-based, P. aeruginosa.
Take `Cc1ccccc1N(C)CC(=O)Nc1ccc(C#N)cc1` [Compound 12]: the activity at 50 µM came out at 96%.
On the same count and under the same terms, the same measure for `N#Cc1ccc(NC(=O)CCNc2ccc(F)cc2)cc1` [Compound 46]: 90.8%; for `N#Cc1ccc(NC(=O)CCNc2ccc(F)cc2F)cc1` [Compound 47]: 88.3%; for `N#Cc1ccc(NC(=O)C(=O)Nc2ccc(F)cc2)cc1` [Compound 49]: 106%.
Same read-out and setting: the figure for `Cc1cc(F)ccc1N1CCCC(NC(=O)c2ccc(C#N)cc2)C1` (stereo not shown) [Compound 50] is 108%.
On the same count and under the same terms, the same measure for `Cc1cc(F)ccc1CCNC(=O)c1ccc(C#N)cc1` [Compound 51]: 110%; for `Cc1cc(F)ccc1NC(=O)Cc1ccc(C#N)cc1` [Compound 52]: 115%; for `N#Cc1ccc(NC(=O)CNC(=O)c2ccc(F)cc2)cc1` [Compound 58]: 94%.
Consider `CN(C(=O)CC(=O)Nc1ccc(C#N)cc1)c1ccc(F)cc1` [Compound 59], for which the activity at 50 µM came to 110%.

Still in this experiment, the particulars now being: compound at 50 uM; listed as G1.
As to `Cc1cc(F)ccc1NCC(=O)Nc1cccc(C#N)c1` [Compound 2], the “pyocyanin @50 uM (%)” value is reported as 102.49%.

The next experiment deals with MvfR regulon. Nature of the experiment: LC/MS quantification of HAQs and related molecules in bacterial culture supernatants. The experiment is classed as cell-based, P. aeruginosa. Conditions: Pseudomonas aeruginosa, read-out: 2-AA @50 uM.
As to `Cc1cc(F)ccc1NCC(=O)Nc1cccc(C#N)c1` [Compound 2], the activity at 50 µM was 122%.
On the same count and under the same terms, the figure for `Cc1ccccc1N(C)CC(=O)Nc1ccc(C#N)cc1` [Compound 12] is 63.1%.
Take `N#Cc1ccc(NC(=O)CCNc2ccc(F)cc2)cc1` [Compound 46]: the activity at 50 µM is 113%.
Take `N#Cc1ccc(NC(=O)CCNc2ccc(F)cc2F)cc1` [Compound 47]: the activity at 50 µM came to 100%.
Still for that read-out and setting: the same measure for `N#Cc1ccc(NC(=O)C(=O)Nc2ccc(F)cc2)cc1` [Compound 49]: 103%.
For the compound `Cc1cc(F)ccc1N1CCCC(NC(=O)c2ccc(C#N)cc2)C1` (stereo not shown) [Compound 50], the activity at 50 µM was determined as 101%.
For the compound `Cc1cc(F)ccc1CCNC(=O)c1ccc(C#N)cc1` [Compound 51], the activity at 50 µM was 106%.
On to `Cc1cc(F)ccc1NC(=O)Cc1ccc(C#N)cc1` [Compound 52], for which the activity at 50 µM came to 113%.
Turning to `N#Cc1ccc(NC(=O)CNC(=O)c2ccc(F)cc2)cc1` [Compound 58], the activity at 50 µM was 86.6%.
Still for that read-out and setting: the same measure for `CN(C(=O)CC(=O)Nc1ccc(C#N)cc1)c1ccc(F)cc1` [Compound 59]: 97.3%.

Still in this experiment, the particulars now being: Pseudomonas aeruginosa, read-out: AA @50 uM.
In the case of `N#Cc1ccc(NC(=O)CCNc2ccc(F)cc2)cc1` [Compound 46], the activity at 50 µM is 101%.
`N#Cc1ccc(NC(=O)CCNc2ccc(F)cc2F)cc1` [Compound 47]: the activity at 50 µM was determined as 129%.
Same read-out and setting: the figure for `N#Cc1ccc(NC(=O)C(=O)Nc2ccc(F)cc2)cc1` [Compound 49] is 89.8%; for `Cc1cc(F)ccc1N1CCCC(NC(=O)c2ccc(C#N)cc2)C1` (stereo not shown) [Compound 50] it is 54.5%.
On to `Cc1cc(F)ccc1CCNC(=O)c1ccc(C#N)cc1` [Compound 51], for which the activity at 50 µM was 68%.
Same read-out and setting: the same measure for `Cc1cc(F)ccc1NC(=O)Cc1ccc(C#N)cc1` [Compound 52]: 80.7%; for `N#Cc1ccc(NC(=O)CNC(=O)c2ccc(F)cc2)cc1` [Compound 58]: 32.3%.
As for `CN(C(=O)CC(=O)Nc1ccc(C#N)cc1)c1ccc(F)cc1` [Compound 59], the activity at 50 µM was 35.5%.

The experiment is the same for the next values; noted with them: Pseudomonas aeruginosa, read-out: DHQ @50 uM.
For the compound `Cc1ccccc1N(C)CC(=O)Nc1ccc(C#N)cc1` [Compound 12], the activity at 50 µM stood at 51.5%.
Consider `N#Cc1ccc(NC(=O)CCNc2ccc(F)cc2)cc1` [Compound 46], for which the activity at 50 µM was 99.5%.
With `N#Cc1ccc(NC(=O)CCNc2ccc(F)cc2F)cc1` [Compound 47], the activity at 50 µM came out at 99.3%.
`N#Cc1ccc(NC(=O)C(=O)Nc2ccc(F)cc2)cc1` [Compound 49]: the activity at 50 µM is 105%.
Still for that read-out and setting: the same measure for `Cc1cc(F)ccc1N1CCCC(NC(=O)c2ccc(C#N)cc2)C1` (stereo not shown) [Compound 50]: 84.2%; for `Cc1cc(F)ccc1CCNC(=O)c1ccc(C#N)cc1` [Compound 51]: 95.5%.
For the compound `Cc1cc(F)ccc1NC(=O)Cc1ccc(C#N)cc1` [Compound 52], the activity at 50 µM was 84.9%.
On the same count and under the same terms, the figure for `N#Cc1ccc(NC(=O)CNC(=O)c2ccc(F)cc2)cc1` [Compound 58] is 89.8%.
Still for that read-out and setting: the same measure for `CN(C(=O)CC(=O)Nc1ccc(C#N)cc1)c1ccc(F)cc1` [Compound 59]: 91%.

Still in this experiment, the particulars now being: Pseudomonas aeruginosa, read-out: HHQ @50 uM (%).
For `Cc1cc(F)ccc1NCC(=O)Nc1cccc(C#N)c1` [Compound 2], the activity at 50 µM worked out at 100%.
For the compound `Cc1ccccc1N(C)CC(=O)Nc1ccc(C#N)cc1` [Compound 12], the activity at 50 µM came to 73.4%.
In the case of `N#Cc1ccc(NC(=O)CCNc2ccc(F)cc2)cc1` [Compound 46], the activity at 50 µM was found to be 97%.
As for `N#Cc1ccc(NC(=O)CCNc2ccc(F)cc2F)cc1` [Compound 47], the activity at 50 µM was determined as 109%.
On to `N#Cc1ccc(NC(=O)C(=O)Nc2ccc(F)cc2)cc1` [Compound 49], for which the activity at 50 µM is 97.9%.
On to `Cc1cc(F)ccc1N1CCCC(NC(=O)c2ccc(C#N)cc2)C1` (stereo not shown) [Compound 50], for which the activity at 50 µM is 98.5%.
Still for that read-out and setting: the same measure for `Cc1cc(F)ccc1CCNC(=O)c1ccc(C#N)cc1` [Compound 51]: 96.2%.
In the case of `Cc1cc(F)ccc1NC(=O)Cc1ccc(C#N)cc1` [Compound 52], the activity at 50 µM worked out at 102%.
On the same count and under the same terms, the same measure for `N#Cc1ccc(NC(=O)CNC(=O)c2ccc(F)cc2)cc1` [Compound 58]: 77.8%; for `CN(C(=O)CC(=O)Nc1ccc(C#N)cc1)c1ccc(F)cc1` [Compound 59]: 75.9%.

The experiment is the same for the next values; noted with them: Pseudomonas aeruginosa, read-out: HQNO @50 uM (%).
On to `Cc1cc(F)ccc1NCC(=O)Nc1cccc(C#N)c1` [Compound 2], for which the activity at 50 µM was determined as 101%.
On the same count and under the same terms, the same measure for `Cc1ccccc1N(C)CC(=O)Nc1ccc(C#N)cc1` [Compound 12]: 91.2%; for `N#Cc1ccc(NC(=O)CCNc2ccc(F)cc2)cc1` [Compound 46]: 95.8%.
Consider `N#Cc1ccc(NC(=O)CCNc2ccc(F)cc2F)cc1` [Compound 47], for which the activity at 50 µM came out at 101%.
Still for that read-out and setting: the same measure for `N#Cc1ccc(NC(=O)C(=O)Nc2ccc(F)cc2)cc1` [Compound 49]: 99.5%; for `Cc1cc(F)ccc1N1CCCC(NC(=O)c2ccc(C#N)cc2)C1` (stereo not shown) [Compound 50]: 100%.
The same measure, in the same setting: the same measure for `Cc1cc(F)ccc1CCNC(=O)c1ccc(C#N)cc1` [Compound 51]: 102%; for `Cc1cc(F)ccc1NC(=O)Cc1ccc(C#N)cc1` [Compound 52]: 109%; for `N#Cc1ccc(NC(=O)CNC(=O)c2ccc(F)cc2)cc1` [Compound 58]: 85.9%.
On the same count and under the same terms, the same measure for `CN(C(=O)CC(=O)Nc1ccc(C#N)cc1)c1ccc(F)cc1` [Compound 59]: 85.3%.

Staying with this experiment, now noted: Pseudomonas aeruginosa, read-out: PQS @50 uM (%).
`Cc1cc(F)ccc1NCC(=O)Nc1cccc(C#N)c1` [Compound 2]: the activity at 50 µM was found to be 109%.
With `Cc1ccccc1N(C)CC(=O)Nc1ccc(C#N)cc1` [Compound 12], the activity at 50 µM was found to be 95.5%.
Same read-out and setting: the figure for `N#Cc1ccc(NC(=O)CCNc2ccc(F)cc2)cc1` [Compound 46] is 97.2%; for `N#Cc1ccc(NC(=O)CCNc2ccc(F)cc2F)cc1` [Compound 47] it is 108%; for `N#Cc1ccc(NC(=O)C(=O)Nc2ccc(F)cc2)cc1` [Compound 49] it is 110%.
For `Cc1cc(F)ccc1N1CCCC(NC(=O)c2ccc(C#N)cc2)C1` (stereo not shown) [Compound 50], the activity at 50 µM is 96.1%.
On the same count and under the same terms, the same measure for `Cc1cc(F)ccc1CCNC(=O)c1ccc(C#N)cc1` [Compound 51]: 93.5%; for `Cc1cc(F)ccc1NC(=O)Cc1ccc(C#N)cc1` [Compound 52]: 99.8%; for `N#Cc1ccc(NC(=O)CNC(=O)c2ccc(F)cc2)cc1` [Compound 58]: 85.1%.
The same measure, in the same setting: the same measure for `CN(C(=O)CC(=O)Nc1ccc(C#N)cc1)c1ccc(F)cc1` [Compound 59]: 86.6%.

The subject of another experiment is MvfR regulon. Nature of the experiment: pqsA gene expression (pqsA-GFP reporter). The experiment is classed as cell-based, P. aeruginosa. Conditions: Pseudomonas aeruginosa, read-out: pqsA @10 uM (%), compound at 10 uM. Here is the method: Experiments were performed to identify compounds that inhibit the MvfR regulon without altering growth, ultimately attenuating P. aeruginosa infection. MvfR is a LysR-type transcriptional regulator that directs HAQs synthesis, including that of its ligands, 4-hydroxy-2-heptylquinoline (HHQ) and 3,4-dihydroxy-2-heptylquinoline (PQS).
MvfR promotes the production of HAQs by binding to and activating the pqs operon, which encodes enzymes for HAQ synthesis. Anthranilic acid (AA), derived from the phnAB, kynABU, and trpEG pathways, is the precursor for HAQs. pqsA encodes an anthranilate-coenzyme A ligase, which activates anthranilic acid and catalyzes the first committed step to HAQ production. The exact roles of PqsB and PqsC are unknown, though both show homology to acyl-carrier-proteins and both are required for HHQ and PQS production. […] The final gene of the operon, pqsE encodes for a putative hydrolase, and while the protein is not required for the synthesis of HAQs, it is necessary for pyocyanin production.
Nanomolar levels of most of these MvfR antagonists impeded the activity of MvfR and in consequence the MvfR virulence regulated ACRP functions, including: (1) the production of the important pro-acute P. aeruginosa virulence factor pyocyanin (see e.g., FIG. 9A) the efficacy of two of these potent inhibitors, D57 and D88, was also confirmed by testing many different MDR P. aeruginosa clinical isolates (see e.g., FIG. 11A-11B), providing further confidence of their inhibitory potency; (2) the expression of the genes that encode the enzymes catalyzing the synthesis of both pro-acute and pro-persistence MvfR-regulated virulence molecules, 4-hydroxyl-2-alkyl-quinolines (HAQs) and 2-aminoacetophenon (2-AA), as assessed by pqsAGFP reporter gene expression (see e.g., FIG. 9B) and HAQ production showing the levels of MvfR inducers/ligands HHQ and PQS as well as of the molecules critical for biofilm and Antibiotic tolerant/persiters cells formation HQNO and 2-AA (see e.g., FIG. 9C); (3) AT/P cell formation (see e.g., FIGS. 11A, 12A); (4) biofilm formation (see e.g., FIG. 12B); and (5) biofilm dispersal of preformed biofilm by potentiating antibiotic action (see e.g., FIG. 11B).
Consider `N#Cc1ccc(NC(=O)CNC(=O)c2ccc(F)cc2)cc1` [Compound 58], for which the activity at 10 µM came to 11%.
As for `CN(C(=O)CC(=O)Nc1ccc(C#N)cc1)c1ccc(F)cc1` [Compound 59], the activity at 10 µM worked out at 110%.

Staying with this experiment, now noted: Pseudomonas aeruginosa, read-out: pqsA @50 uM (%), compound at 50 uM.
With `Cc1ccccc1N(C)CC(=O)Nc1ccc(C#N)cc1` [Compound 12], the activity at 50 µM amounted to 95.7%.
Take `N#Cc1ccc(NC(=O)CCNc2ccc(F)cc2)cc1` [Compound 46]: the activity at 50 µM stood at 79.6%.
The same measure, in the same setting: the figure for `N#Cc1ccc(NC(=O)CCNc2ccc(F)cc2F)cc1` [Compound 47] is 74.3%; for `N#Cc1ccc(NC(=O)C(=O)Nc2ccc(F)cc2)cc1` [Compound 49] it is 96.9%.
Consider `Cc1cc(F)ccc1N1CCCC(NC(=O)c2ccc(C#N)cc2)C1` (stereo not shown) [Compound 50], for which the activity at 50 µM was found to be 89.9%.
On the same count and under the same terms, the figure for `Cc1cc(F)ccc1CCNC(=O)c1ccc(C#N)cc1` [Compound 51] is 91.4%.
In the case of `Cc1cc(F)ccc1NC(=O)Cc1ccc(C#N)cc1` [Compound 52], the activity at 50 µM is 95.7%.
The same measure, in the same setting: the figure for `N#Cc1ccc(NC(=O)CNC(=O)c2ccc(F)cc2)cc1` [Compound 58] is 70.7%.
Turning to `CN(C(=O)CC(=O)Nc1ccc(C#N)cc1)c1ccc(F)cc1` [Compound 59], the activity at 50 µM was found to be 105%.

Staying with this experiment, now noted: compound at 50 uM; listed as G1.
As to `Cc1cc(F)ccc1NCC(=O)Nc1cccc(C#N)c1` [Compound 2], the “pqsA @50 uM (%)” value came out at 84.13%.

The record behind these values is US11731946B2, “Broad spectrum antivirulence, anti-persistence compounds” (priority 2017, dated 2023).
